Results reported in patent publication US20060210625A1, “Sustained release of positively charged pharmacologically active molecules from a matrix containing polymers with polarized oxygen atoms” (Shire Laboratories, Inc., priority 2003, published 2006).

Experiment: Viscosity of HPMC K4M solution with trospium chloride (Brookfield viscometer)
Type: physicochemical
Settings: S18 spindle
Protocol: Applicants have discovered that a certain interaction occurs between polarized oxygen atom containing-polymers and positively charged molecules, such as trospium chloride, which is exemplified by the dramatic change in viscosity of, for instance, an HPMC K4M solution when a drug in solution is added to it. An HPMC K4M solution was prepared and diluted to 2% by weight (or “w/w”) with either a trospium chloride solution or water. […] Without being bound to any particular theory, it is believed that this interaction leads to a slowed release of the active agent, and thus for the first time controlled release, once-daily formulations of highly water-soluble compounds can be made with relative ease.
In order to examine the interaction of trospium chloride with HPMC K4M polymer, viscosity of HPMC K4M was measured at a polymer concentration of 2% w/w at room temperature. Also examined was a 2% w/w solution of HPMC K4M containing trospium chloride at a final concentration of 16.7% w/w.
Viscosity was measured using a Brookfield viscometer fitted with an S18 spindle. Viscosity was measured at two spindle speeds. […] The contribution of the trospium chloride solution viscosity on the viscosity of the HPMC K4M solution is negligible.

In the case of `O=C(O[C@H]1C[C@H]2CC[C@@H](C1)[N+]21CCCC1)C(O)(c1ccccc1)c1ccccc1` [trospium chloride], the “viscosity of the HPMC K4M solution in the presence of the drug as compared to HPMC K4M solution without the drug” value (2% w/w HPMC K4M, trospium chloride 16.7% w/w, room temperature, two spindle speeds) is reported as “more than doubled” and the “contribution of the trospium chloride solution viscosity on the viscosity of the HPMC K4M solution” value (Brookfield viscometer) is reported as “negligible”.
